The record followed here is patent publication US20220227813A1, “Ras INHIBITORY PEPTIDE” (ICHIMARU PHARCOS CO., LTD., priority 2019, published 2022).

For series [1], the system named is PANC-1 cells expressing K-Ras(G12D). Description: anticancer activity in subcutaneous carcinoma-bearing mice. Type of series: in vivo. The following applies: 40 mg/kg tail vein once every two days. As to the method:
PANC-1 cells expressing K-Ras(G12D) (Catalog No. CRL-1469, ATCC) were transplanted at 1×10^7 cells under the left inguinal skin of Crl:SHO-Prkdc^scidHr^hr mice (female, 7 weeks old) (Charles River, Japan). When the tumor volume reached approximately 50 mm^3, the mice were submitted to the study. Tumor volume was determined by measuring the long diameter (mm) and the short diameter (mm) orthogonal to the long diameter from the skin surface with calipers and using the formula: (long diameter)×(short diameter)^2×0.5, with the unit being mm^3. A representative example of the peptide in one of embodiments (Seq-17) was dissolved in DMSO, diluted 10 times with saline, and administered at 40 mg/kg through the tail vein once every two days, and the body weight and tumor volume of mice were measured over time (peptide administration group: N=10, vehicle group: N=4). The vehicle group was the group in which cancer cells were implanted and saline (10% DMSO) was administered.

The test system is the same in series [2]. The experiment in a line: anticancer activity in orthotopic transplant model mice. Type of series: in vivo. The following applies: 40 mg/kg tail vein once every two days. As to the method:
PANC-1 cells expressing K-Ras(G12D) (Catalog No. CRL-1469, ATCC) were transplanted at 2.5×10^6 cells under the tail capsule of the pancreas of BALB/cAJc1-nu/nu mice (male, 8 weeks old) (Nihon Clare Co., Ltd.), and were used for the test one week later. The peptide (Seq-17) synthesized in this study was dissolved in DMSO, diluted 10-fold with saline, and administered at 40 mg/kg through the tail vein once every two days, and the body weight of the mice was measured over time (Sham group, peptide administration group, and vehicle group: N=7 for each). The Sham group was the group that received saline (10% DMSO) without cancer cell transplantation, and the Vehicle group was the group that received saline (10% DMSO) with cancer cell transplantation. The weight of the mice and the weight of their organs (pancreas, liver, and kidney) were measured four weeks after the start of administration.

A short description of series [3]: resistance to protease degradation in rat plasma (RP-HPLC). It is filed as in vitro ADME. The following applies: 37° C., 24 hours compared to 0 hours. As to the method:
For 1 μL of each 10 mM peptide, 20 μL of rat plasma was added and incubated at 37° C. for an arbitrary time (0 or 24 hours). […] To remove plasma proteins, the mixture was centrifuged at a speed of 15,000 rpm under 4° C. for 10 min. The supernatant was collected and the remaining amount of peptide was detected by RP-HPLC (solution A: 0.1% TFA/water, solution B: 0.1% TFA/acetonitrile, 20 min gradient of 80% solution A→10% solution A at 1 mL/min) using a SunFire C18 column (5 μm, 4.6×^150 mm).

In series [4] the test system is PANC-1 cells expressing K-Ras (G12D). The experiment in a line: cell proliferation test, PANC-1 cells. The following applies: final concentration 30 μM, ATP quantification (CellTiter-Glo), N=4. It is filed as cell-based. The method, then: The following is a brief description of the cell proliferation test, which may be performed according to the Non-Patent Literature 3. A427 cells expressing K-Ras(G12D) (Catalog No. HTB-53, ATCC) or PANC-1 cells expressing K-Ras (G12D) (Catalog No. CRL-1469, ATCC) were spread into 96-well plates at 1×10^3 cells/well and cultured overnight at 37° C. in a CO2 incubator. Peptides diluted in serum medium (final concentration 30 μM) were added to the wells, and after culturing for 24 hours, all the medium was removed, and then freshly diluted peptides in serum medium (final concentration 30 μM) were added to the wells and incubated for 24 hours. The number of cells in the wells was quantified by CellTiter-Glo (Catalog No. G7570, Promega) after the removal of medium and addition of peptide for a total of three times.

Starred links: 1 amine or outer side, 2 acyl side, 3 side chain; linkers in the order of their positions; H or OH if unused. Positions of bridges follow the written chain, without caps; N, C: chain ends. Non-standard residues stand in square brackets, D forms with d. Residues, ends and D or L forms follow the SMILES beside them. Phe(4-F) = N[C@@H](Cc1ccc(F)cc1)C(=O)O; X1 = CCCCCCC[C@H](N[*:1])C(=O)[*:2]; Nle = CCCC[C@H](N)C(=O)O; X2 = C(C[*:1])C[*:2]; βAla = NCCC(=O)O

For the molecule `CCCCCCC[C@@H]1NC(=O)[C@@H]2CSCCCSC[C@@H](NC(=O)[C@H](Cc3c[nH]c4ccccc34)NC(=O)[C@@H]3CCCN3C(=O)[C@H](CC(=O)O)NC(=O)[C@H](Cc3ccc(F)cc3)NC(=O)[C@H](CO)NC1=O)C(=O)NCCC(=O)N1CCC[C@H]1C(=O)N[C@@H](CCCC)C(=O)N2` [Seq-17, c[βAla-Pro-Nle-c(Cys-Anon-Ser-4fF-Asp-Pro-Trp-^DCys)]] (cyclo([βAla]P[Nle]C[X1]S[Phe(4-F)]DPW[dC]); linker 4-11 via X2), the “body weight of the mice” value in series [1] is recorded as “no decrease”. For the same molecule, the “increase in tumor volume” value in series [1] (p-value (Student's t-test) less than 0.005) is on record as “significantly suppressed”. For the same molecule, the “body weight of the mice” value in series [2] is “no decrease”. Besides, in series [2] (four weeks), the weight of kidney result is listed as “no significant difference” and the weight of liver result is on record as “no significant difference”. For the same molecule, the “increase in the weight of pancreas” value in series [2] (four weeks, p-value (Student's t-test) less than 0.05) is listed as “significantly suppressed”. Also, in series [3], the “peptide-derived RP-HPLC peak remaining after incubation in rat plasma” value is given as “remained almost the same”. The “growth inhibitory activity against PANC-1 cells” value in series [4] is “inhibited the proliferation”.
